Laboratory results from ChEMBL document CHEMBL4507316 (2021).

Experiments:
[1] = test system: Tyrosine-protein kinase ABL1 (Homo sapiens), P00519 [F317I]; assay: ABL1 F317I ProQinase selectivity panel; settings: Compound concentration 1.0 uM
[2] = biological target: RAC-alpha serine/threonine-protein kinase (Homo sapiens) (UniProt P31749); assay: AKT1 ProQinase selectivity panel; settings: Compound concentration 1.0 uM
[3] = biological target: RAC-beta serine/threonine-protein kinase (Homo sapiens) (UniProt P31751); assay: AKT2 ProQinase selectivity panel; settings: Compound concentration 1.0 uM
[4] = biological target: 5'-AMP-activated protein kinase catalytic subunit alpha-1 (Homo sapiens) (UniProt Q13131); assay: AMPK-alpha1 ProQinase selectivity panel; settings: Compound concentration 1.0 uM
[5] = biological target: Mitogen-activated protein kinase kinase kinase 5 (Homo sapiens) (UniProt Q99683); assay: ASK1 ProQinase selectivity panel; settings: Compound concentration 1.0 uM
[6] = biological target: Bone morphogenetic protein receptor type-1A (Homo sapiens) (UniProt P36894); assay: BMPR1A ProQinase selectivity panel; settings: Compound concentration 1.0 uM
[7] = biological target: Calcium/calmodulin-dependent protein kinase kinase 1 (Homo sapiens) (UniProt Q8N5S9); assay: CAMKK1 ProQinase selectivity panel; settings: Compound concentration 1.0 uM
[8] = biological target: Cyclin-dependent kinase 1/cyclin B (Homo sapiens) (UniProt P06493+P14635+Q8WWL7+O95067); assay: CDK1/CycB1 ProQinase selectivity panel; assay type: protein-complex assay; settings: Compound concentration 1.0 uM
[9] = biological target: Cyclin-dependent kinase 2/cyclin A (Homo sapiens) (UniProt P24941+P20248+P78396); assay: CDK2/CycA ProQinase selectivity panel; assay type: protein-complex assay; settings: Compound concentration 1.0 uM
[10] = biological target: Cyclin-dependent kinase 5/CDK5 activator 1 (Homo sapiens) (UniProt Q00535+Q15078); assay: CDK5/p35NCK ProQinase selectivity panel; assay type: protein-complex assay; settings: Compound concentration 1.0 uM
[11] = biological target: Casein kinase I isoform alpha (Homo sapiens) (UniProt P48729); assay: CK1-alpha1 ProQinase selectivity panel; settings: Compound concentration 1.0 uM
[12] = biological target: Dual specificity protein kinase CLK2 (Homo sapiens) (UniProt P49760); assay: CLK2 ProQinase selectivity panel; settings: Compound concentration 1.0 uM
[13] = biological target: Eukaryotic translation initiation factor 2-alpha kinase 3 (Homo sapiens) (UniProt Q9NZJ5); assay: EIF2AK3 ProQinase selectivity panel; settings: Compound concentration 1.0 uM
[14] = biological target: Ephrin type-A receptor 1 (Homo sapiens) (UniProt P21709); assay: EPHA1 ProQinase selectivity panel; settings: Compound concentration 1.0 uM
[15] = biological target: Ephrin type-A receptor 2 (Homo sapiens) (UniProt P29317); assay: EPHA2 ProQinase selectivity panel; settings: Compound concentration 1.0 uM
[16] = biological target: Ephrin type-A receptor 3 (Homo sapiens) (UniProt P29320); assay: EPHA3 ProQinase selectivity panel; settings: Compound concentration 1.0 uM
[17] = biological target: Ephrin type-B receptor 1 (Homo sapiens) (UniProt P54762); assay: EPHB1 ProQinase selectivity panel; settings: Compound concentration 1.0 uM
[18] = biological target: Mitogen-activated protein kinase 1 (Homo sapiens) (UniProt P28482); assay: ERK2 ProQinase selectivity panel; settings: Compound concentration 1.0 uM
[19] = biological target: Fibroblast growth factor receptor 1 (Homo sapiens) (UniProt P11362); assay: FGF-R1 wt ProQinase selectivity panel; settings: Compound concentration 1.0 uM
[20] = biological target: Mast/stem cell growth factor receptor Kit (Homo sapiens) (UniProt P10721); assay: KIT wt ProQinase selectivity panel; settings: Compound concentration 1.0 uM
[21] = biological target: Tyrosine-protein kinase Lck (Homo sapiens) (UniProt P06239); assay: LCK ProQinase selectivity panel; settings: Compound concentration 1.0 uM
[22] = biological target: Mitogen-activated protein kinase kinase kinase 10 (Homo sapiens) (UniProt Q02779); assay: MAP3K10 ProQinase selectivity panel; settings: Compound concentration 1.0 uM
[23] = biological target: MAP kinase-activated protein kinase 5 (Homo sapiens) (UniProt Q8IW41); assay: MAPKAPK5 ProQinase selectivity panel; settings: Compound concentration 1.0 uM
[24] = biological target: Mitogen-activated protein kinase kinase kinase 3 (Homo sapiens) (UniProt Q99759); assay: MEKK3 ProQinase selectivity panel; settings: Compound concentration 1.0 uM
[25] = test system: Hepatocyte growth factor receptor (Homo sapiens), P08581 [Y1230H]; assay: MET Y1230H ProQinase selectivity panel; settings: Compound concentration 1.0 uM
[26] = biological target: Misshapen-like kinase 1 (Homo sapiens) (UniProt Q8N4C8); assay: MINK1 ProQinase selectivity panel; settings: Compound concentration 1.0 uM
[27] = biological target: Serine/threonine-protein kinase Nek4 (Homo sapiens) (UniProt P51957); assay: NEK4 ProQinase selectivity panel; settings: Compound concentration 1.0 uM
[28] = biological target: Mitogen-activated protein kinase 13 (Homo sapiens) (UniProt O15264); assay: p38-delta ProQinase selectivity panel; settings: Compound concentration 1.0 uM
[29] = biological target: Serine/threonine-protein kinase PAK 1 (Homo sapiens) (UniProt Q13153); assay: PAK1 ProQinase selectivity panel; settings: Compound concentration 1.0 uM
[30] = biological target: Serine/threonine-protein kinase PAK 2 (Homo sapiens) (UniProt Q13177); assay: PAK2 ProQinase selectivity panel; settings: Compound concentration 1.0 uM
[31] = biological target: Serine/threonine-protein kinase PAK 5 (Homo sapiens) (UniProt Q9P286); assay: PAK7 ProQinase selectivity panel; settings: Compound concentration 1.0 uM
[32] = biological target: Platelet-derived growth factor receptor beta (Homo sapiens) (UniProt P09619); assay: PDGFR-beta ProQinase selectivity panel; settings: Compound concentration 1.0 uM
[33] = biological target: Protein kinase C zeta type (Homo sapiens) (UniProt Q05513); assay: PKC-zeta ProQinase selectivity panel; settings: Compound concentration 1.0 uM
[34] = biological target: cGMP-dependent protein kinase 1 (Homo sapiens) (UniProt Q13976); assay: PRKG1 ProQinase selectivity panel; settings: Compound concentration 1.0 uM
[35] = biological target: Rho-associated protein kinase 2 (Homo sapiens) (UniProt O75116); assay: ROCK2 ProQinase selectivity panel; settings: Compound concentration 1.0 uM
[36] = biological target: Ribosomal protein S6 kinase alpha-6 (Homo sapiens) (UniProt Q9UK32); assay: RPS6KA6 ProQinase selectivity panel; settings: Compound concentration 1.0 uM
[37] = biological target: Ribosomal protein S6 kinase beta-2 (Homo sapiens) (UniProt Q9UBS0); assay: S6K-beta ProQinase selectivity panel; settings: Compound concentration 1.0 uM
[38] = biological target: Serine/threonine-protein kinase Sgk2 (Homo sapiens) (UniProt Q9HBY8); assay: SGK2 ProQinase selectivity panel; settings: Compound concentration 1.0 uM
[39] = biological target: Tyrosine-protein kinase Srms (Homo sapiens) (UniProt Q9H3Y6); assay: SRMS ProQinase selectivity panel; settings: Compound concentration 1.0 uM
[40] = biological target: Serine/threonine-protein kinase TBK1 (Homo sapiens) (UniProt Q9UHD2); assay: TBK1 ProQinase selectivity panel; settings: Compound concentration 1.0 uM
[41] = biological target: TGF-beta receptor type-1 (Homo sapiens) (UniProt P36897); assay: TGFB-R1 ProQinase selectivity panel; settings: Compound concentration 1.0 uM
[42] = biological target: Serine/threonine-protein kinase 16 (Homo sapiens) (UniProt O75716); assay: TSF1 ProQinase selectivity panel; settings: Compound concentration 1.0 uM
[43] = biological target: 5-hydroxytryptamine receptor 1A (Homo sapiens) (UniProt P08908); settings: Compound concentration 10.0 uM
[44] = biological target: D(4) dopamine receptor (Homo sapiens) (UniProt P21917); settings: Compound concentration 10.0 uM
[45] = biological target: Alpha-2B adrenergic receptor (Homo sapiens) (UniProt P18089); settings: Compound concentration 10.0 uM
[46] = biological target: GABA-A receptor; anion channel (Rattus norvegicus) (UniProt O09028+P15431+P18506+P18508+P19969+P20236+P23574+P23576+P28471+P28473+P30191+P62813+P63079+P63138+Q91ZM7+Q9ES14); settings: Compound concentration 10.0 uM
[47] = biological target: Sigma non-opioid intracellular receptor 1 (Homo sapiens) (UniProt Q99720); settings: Compound concentration 10.0 uM
Sigma non-opioid intracellular receptor 1 (Homo sapiens), sequence (Q99720 whole entry): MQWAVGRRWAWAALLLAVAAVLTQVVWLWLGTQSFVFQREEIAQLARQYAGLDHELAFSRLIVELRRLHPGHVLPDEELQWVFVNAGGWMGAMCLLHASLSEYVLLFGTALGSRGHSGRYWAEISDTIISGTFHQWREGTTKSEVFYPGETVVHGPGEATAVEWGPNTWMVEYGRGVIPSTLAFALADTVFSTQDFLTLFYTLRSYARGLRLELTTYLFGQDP

D(4) dopamine receptor (Homo sapiens), sequence (P21917 whole entry): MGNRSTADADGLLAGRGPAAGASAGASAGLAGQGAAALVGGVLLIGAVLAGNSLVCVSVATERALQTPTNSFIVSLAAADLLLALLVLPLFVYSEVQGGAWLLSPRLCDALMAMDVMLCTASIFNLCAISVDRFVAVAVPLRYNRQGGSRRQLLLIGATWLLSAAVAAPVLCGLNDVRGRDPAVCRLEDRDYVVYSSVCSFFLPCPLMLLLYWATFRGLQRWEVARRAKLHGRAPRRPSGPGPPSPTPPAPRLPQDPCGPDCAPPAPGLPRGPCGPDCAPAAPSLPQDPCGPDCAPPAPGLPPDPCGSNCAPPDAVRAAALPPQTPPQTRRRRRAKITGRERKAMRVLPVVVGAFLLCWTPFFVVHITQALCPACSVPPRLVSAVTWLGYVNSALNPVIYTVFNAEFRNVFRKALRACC
Mitogen-activated protein kinase 13 (Homo sapiens), sequence (O15264 whole entry): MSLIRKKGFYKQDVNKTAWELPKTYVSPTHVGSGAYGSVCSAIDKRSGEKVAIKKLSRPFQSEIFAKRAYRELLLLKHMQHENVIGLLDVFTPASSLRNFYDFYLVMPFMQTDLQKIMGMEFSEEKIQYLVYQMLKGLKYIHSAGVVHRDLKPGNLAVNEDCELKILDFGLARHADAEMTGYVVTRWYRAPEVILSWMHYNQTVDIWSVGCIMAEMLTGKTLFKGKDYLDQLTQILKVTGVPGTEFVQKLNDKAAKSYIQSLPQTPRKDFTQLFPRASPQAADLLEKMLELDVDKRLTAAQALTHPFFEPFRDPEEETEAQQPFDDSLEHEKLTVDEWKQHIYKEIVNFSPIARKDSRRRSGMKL
Mitogen-activated protein kinase 1 (Homo sapiens), sequence (P28482 whole entry): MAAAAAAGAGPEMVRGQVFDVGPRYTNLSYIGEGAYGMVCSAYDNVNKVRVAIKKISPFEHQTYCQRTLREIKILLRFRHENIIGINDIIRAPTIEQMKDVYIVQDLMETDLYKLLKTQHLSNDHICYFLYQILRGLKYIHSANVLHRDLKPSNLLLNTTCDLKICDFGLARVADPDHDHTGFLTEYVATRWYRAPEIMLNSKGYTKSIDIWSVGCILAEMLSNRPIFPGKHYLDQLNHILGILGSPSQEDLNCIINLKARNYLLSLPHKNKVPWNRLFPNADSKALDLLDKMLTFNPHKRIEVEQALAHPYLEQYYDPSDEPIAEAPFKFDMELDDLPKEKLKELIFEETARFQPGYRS
Calcium/calmodulin-dependent protein kinase kinase 1 (Homo sapiens), sequence (Q8N5S9 whole entry, looked up): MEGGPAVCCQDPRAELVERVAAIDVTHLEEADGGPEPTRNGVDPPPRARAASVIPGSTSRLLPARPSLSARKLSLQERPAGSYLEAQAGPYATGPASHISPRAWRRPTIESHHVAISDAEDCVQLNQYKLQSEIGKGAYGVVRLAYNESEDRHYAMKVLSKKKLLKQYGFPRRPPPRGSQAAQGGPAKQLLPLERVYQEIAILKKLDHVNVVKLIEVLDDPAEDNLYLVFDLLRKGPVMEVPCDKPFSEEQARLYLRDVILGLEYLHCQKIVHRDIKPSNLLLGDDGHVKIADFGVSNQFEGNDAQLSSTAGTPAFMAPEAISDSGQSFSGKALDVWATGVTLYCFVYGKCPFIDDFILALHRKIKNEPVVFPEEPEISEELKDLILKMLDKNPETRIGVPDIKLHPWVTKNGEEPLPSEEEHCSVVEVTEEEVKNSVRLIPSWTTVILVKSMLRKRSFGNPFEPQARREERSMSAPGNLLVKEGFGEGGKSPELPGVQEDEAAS
Serine/threonine-protein kinase PAK 2 (Homo sapiens), sequence (Q13177 whole entry): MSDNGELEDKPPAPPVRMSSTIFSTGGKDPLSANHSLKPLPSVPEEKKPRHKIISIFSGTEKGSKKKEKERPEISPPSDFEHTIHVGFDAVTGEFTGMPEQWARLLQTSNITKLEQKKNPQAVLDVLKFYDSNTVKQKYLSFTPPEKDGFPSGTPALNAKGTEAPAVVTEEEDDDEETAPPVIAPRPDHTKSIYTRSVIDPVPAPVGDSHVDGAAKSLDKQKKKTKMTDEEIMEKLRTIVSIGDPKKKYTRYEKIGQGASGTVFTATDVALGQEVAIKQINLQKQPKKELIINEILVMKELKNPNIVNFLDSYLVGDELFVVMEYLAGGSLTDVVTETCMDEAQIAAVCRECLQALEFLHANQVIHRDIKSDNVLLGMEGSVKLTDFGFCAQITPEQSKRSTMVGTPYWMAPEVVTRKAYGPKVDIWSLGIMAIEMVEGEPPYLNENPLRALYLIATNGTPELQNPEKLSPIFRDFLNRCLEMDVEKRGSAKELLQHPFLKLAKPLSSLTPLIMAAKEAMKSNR
Mitogen-activated protein kinase kinase kinase 3 (Homo sapiens), sequence (Q99759 whole entry): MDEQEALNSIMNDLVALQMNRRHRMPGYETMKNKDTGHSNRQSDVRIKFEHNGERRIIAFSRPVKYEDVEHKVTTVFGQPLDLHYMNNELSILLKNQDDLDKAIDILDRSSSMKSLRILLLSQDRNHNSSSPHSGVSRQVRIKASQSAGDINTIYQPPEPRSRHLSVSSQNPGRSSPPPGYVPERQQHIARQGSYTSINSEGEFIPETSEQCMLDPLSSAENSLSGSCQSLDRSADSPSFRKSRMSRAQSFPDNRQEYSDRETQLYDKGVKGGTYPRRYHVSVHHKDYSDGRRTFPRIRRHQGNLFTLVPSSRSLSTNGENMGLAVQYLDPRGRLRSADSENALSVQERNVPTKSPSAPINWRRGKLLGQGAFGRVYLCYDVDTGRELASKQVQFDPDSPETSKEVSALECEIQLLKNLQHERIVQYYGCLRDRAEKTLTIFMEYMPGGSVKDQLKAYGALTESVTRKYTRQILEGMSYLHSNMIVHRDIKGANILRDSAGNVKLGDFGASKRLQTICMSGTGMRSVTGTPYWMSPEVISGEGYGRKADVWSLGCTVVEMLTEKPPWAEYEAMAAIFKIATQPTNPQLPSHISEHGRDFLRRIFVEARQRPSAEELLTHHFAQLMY
Tyrosine-protein kinase ABL1 (Homo sapiens), P00519 [F317I], sequence (P00519 whole entry F317I): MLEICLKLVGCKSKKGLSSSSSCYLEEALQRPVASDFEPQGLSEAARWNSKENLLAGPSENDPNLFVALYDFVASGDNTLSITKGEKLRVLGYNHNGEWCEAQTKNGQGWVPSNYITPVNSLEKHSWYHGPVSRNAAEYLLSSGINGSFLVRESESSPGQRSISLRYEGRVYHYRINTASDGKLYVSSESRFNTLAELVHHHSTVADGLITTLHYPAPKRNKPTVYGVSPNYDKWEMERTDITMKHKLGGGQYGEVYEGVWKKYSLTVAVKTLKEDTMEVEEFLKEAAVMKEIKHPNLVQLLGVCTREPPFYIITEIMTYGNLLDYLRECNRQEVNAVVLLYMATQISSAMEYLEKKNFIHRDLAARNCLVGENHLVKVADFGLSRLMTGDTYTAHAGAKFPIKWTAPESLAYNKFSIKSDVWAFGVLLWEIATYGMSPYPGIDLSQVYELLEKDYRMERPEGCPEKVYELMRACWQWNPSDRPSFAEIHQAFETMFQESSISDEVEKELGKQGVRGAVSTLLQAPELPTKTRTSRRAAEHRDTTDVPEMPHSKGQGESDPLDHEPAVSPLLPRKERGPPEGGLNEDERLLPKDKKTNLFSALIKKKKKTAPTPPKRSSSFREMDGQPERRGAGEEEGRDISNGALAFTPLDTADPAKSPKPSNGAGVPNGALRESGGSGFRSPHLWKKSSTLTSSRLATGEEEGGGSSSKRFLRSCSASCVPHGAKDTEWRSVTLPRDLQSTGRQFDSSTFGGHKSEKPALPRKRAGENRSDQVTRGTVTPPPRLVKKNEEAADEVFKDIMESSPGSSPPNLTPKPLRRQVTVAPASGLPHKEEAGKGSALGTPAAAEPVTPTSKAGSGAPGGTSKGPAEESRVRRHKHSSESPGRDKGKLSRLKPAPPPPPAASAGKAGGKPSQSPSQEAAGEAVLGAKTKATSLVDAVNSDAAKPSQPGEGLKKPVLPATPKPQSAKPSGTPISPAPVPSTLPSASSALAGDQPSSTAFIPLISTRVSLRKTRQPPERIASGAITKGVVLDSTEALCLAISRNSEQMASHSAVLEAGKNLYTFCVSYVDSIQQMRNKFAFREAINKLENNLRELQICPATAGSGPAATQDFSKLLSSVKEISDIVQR
RAC-alpha serine/threonine-protein kinase (Homo sapiens), sequence (P31749 whole entry): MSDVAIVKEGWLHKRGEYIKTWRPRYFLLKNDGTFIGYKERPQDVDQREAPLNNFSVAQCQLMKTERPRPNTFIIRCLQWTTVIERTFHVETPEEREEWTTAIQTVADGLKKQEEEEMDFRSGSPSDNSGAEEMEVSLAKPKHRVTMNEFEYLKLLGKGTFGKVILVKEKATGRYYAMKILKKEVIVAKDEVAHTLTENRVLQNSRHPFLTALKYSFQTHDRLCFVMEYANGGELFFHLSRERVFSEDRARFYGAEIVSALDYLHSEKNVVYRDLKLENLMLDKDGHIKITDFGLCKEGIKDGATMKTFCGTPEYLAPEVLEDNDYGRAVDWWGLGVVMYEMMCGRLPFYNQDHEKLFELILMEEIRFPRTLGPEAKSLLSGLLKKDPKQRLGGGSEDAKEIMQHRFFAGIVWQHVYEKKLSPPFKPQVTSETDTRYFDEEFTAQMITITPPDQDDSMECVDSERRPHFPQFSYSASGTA
Casein kinase I isoform alpha (Homo sapiens), sequence (P48729 2-337 limits assumed): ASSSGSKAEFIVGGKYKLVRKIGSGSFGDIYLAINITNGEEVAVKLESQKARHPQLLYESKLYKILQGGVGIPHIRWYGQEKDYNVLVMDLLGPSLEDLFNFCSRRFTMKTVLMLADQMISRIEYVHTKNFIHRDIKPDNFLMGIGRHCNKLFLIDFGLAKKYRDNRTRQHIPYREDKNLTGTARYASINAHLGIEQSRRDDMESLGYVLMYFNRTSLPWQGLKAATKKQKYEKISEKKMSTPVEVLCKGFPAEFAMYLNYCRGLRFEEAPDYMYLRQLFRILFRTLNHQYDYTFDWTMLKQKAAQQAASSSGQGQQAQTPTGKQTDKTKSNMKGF

O=C1c2ccc(Nc3ccc(F)cc3F)cc2CCc2ccc(OC[C@H](O)CO)cc21 [Skepinone-L]
inactive: % Residual activity with Skepinone-L [1] 102% | % Residual activity with Skepinone-L [2] 102% | % Residual activity with Skepinone-L [3] 121% | % Residual activity with Skepinone-L [4] 84% | % Residual activity with Skepinone-L [5] 103% | % Residual activity with Skepinone-L [6] 100% | % Residual activity with Skepinone-L [7] 83% | % Residual activity with Skepinone-L [8] 83% | % Residual activity with Skepinone-L [9] 101% | % Residual activity with Skepinone-L [10] 90% | % Residual activity with Skepinone-L [11] 97% | % Residual activity with Skepinone-L [12] 89% | % Residual activity with Skepinone-L [13] 95% | % Residual activity with Skepinone-L [14] 115% | % Residual activity with Skepinone-L [15] 119% | % Residual activity with Skepinone-L [16] 107% | % Residual activity with Skepinone-L [17] 116% | % Residual activity with Skepinone-L [18] 83% | % Residual activity with Skepinone-L [19] 117% | % Residual activity with Skepinone-L [20] 111% | % Residual activity with Skepinone-L [21] 102% | % Residual activity with Skepinone-L [22] 101% | % Residual activity with Skepinone-L [23] 97% | % Residual activity with Skepinone-L [24] 96% | % Residual activity with Skepinone-L [25] 102% | % Residual activity with Skepinone-L [26] 94% | % Residual activity with Skepinone-L [27] 99% | % Residual activity with Skepinone-L [28] 80% | % Residual activity with Skepinone-L [29] 100% | % Residual activity with Skepinone-L [30] 83% | % Residual activity with Skepinone-L [31] 87% | % Residual activity with Skepinone-L [32] 96% | % Residual activity with Skepinone-L [33] 109% | % Residual activity with Skepinone-L [34] 110% | % Residual activity with Skepinone-L [35] 90% | % Residual activity with Skepinone-L [36] 85% | % Residual activity with Skepinone-L [37] 89% | % Residual activity with Skepinone-L [38] 89% | % Residual activity with Skepinone-L [39] 95% | % Residual activity with Skepinone-L [40] 87% | % Residual activity with Skepinone-L [41] 93% | % Residual activity with Skepinone-L [42] 94% | inhibition [43] 40.5% | inhibition [44] 9.38% | inhibition [45] 4.37% | inhibition [46] 8.2% | inhibition [47] 48.5%
